Measured values taken from patent US11596632B2, “JAK1 pathway inhibitors for the treatment of gastrointestinal disease” (Incyte Corporation, priority 2018, dated 2023).
pIC50: −log10 of the molar value. Entries after “also recorded” stand apart in the source; their conditions may differ.

Assays:
[1] = target: human JAK1 (a.a. 837-1142) (Homo sapiens (Human), UniProt P23458); assay: In vitro JAK kinase assay (HTRF), JAK1; type: biochemical; details: 1 mM ATP
Method: The catalytic activity of JAK1, JAK2 or JAK3 was assayed by measuring the phosphorylation of a biotinylated peptide. The phosphorylated peptide was detected by homogenous time resolved fluorescence (HTRF). […] Reactions are carried out at room temperature for 1 hour and then stopped with 20 μL 45 mM EDTA, 300 nM SA-APC, 6 nM Eu-Py20 in assay buffer (Perkin Elmer, Boston, Mass.). Binding to the Europium labeled antibody takes place for 40 minutes and HTRF signal was measured on a Fusion plate reader (Perkin Elmer, Boston, Mass.).

[2] = tested on: patients with plaque psoriasis; assay: Clinical study in patients with plaque psoriasis (sPGA, safety); type: in vivo, human
Method: (§1) The systemic effects of Compound 1 have been studied in the auto-immune diseases RA and Ps. Inhibition of phosphorylation of STAT3 following stimulation with IL-6, a marker of AK1 inhibition, and TPO, a marker of JAK2 inhibition was measured in both studies. In patients with Ps doses of 100 mg QD, 200 mg QD, 200 mg BID, and 600 mg QD were studied.

[3] = tested on: IL-6-induced STAT3 phosphorylation; assay: Ex vivo IL-6-induced STAT3 phosphorylation in dosed patients (marker of JAK1 inhibition); design: species or system human; details: 100 mg QD to 600 mg QD
Method: To assess the inhibitory activity of Compound 1 in serum-rich media, e.g., plasma or whole blood, the assay is conducted using whole blood; briefly, the whole blood sample is stimulated with IL-6 and levels of phosphorylated STAT3 are determined. This assay can be conducted either in vitro (human blood samples are spiked with Compound 1) or ex vivo (whole blood samples collected from human subjects dosed with Compound 1).
as §1

[4] = Circulating and colon tissue drug concentrations in mice, oral vs intracolonic; type: in vivo, mouse
Description: Preclinical models of IBD were established in BALB/c mice by intracolonic injection of 2,4,6-trinitrobenzene sulfonic acid (TNBS) or 4-ethoxymethylene-2-phenyl-2-oxazolin-5-one (oxazolone) to trigger an immune response, as described below. Body weight, stool consistency and fecal blood were scored. Additional readouts included colon weight to length ratio and histological evaluation. Blood was collected for pharmacokinetic analysis.
In a further study, quantification of circulating and tissue drug concentrations clearly differentiated the local versus systemic JAK1 target inhibition. […] In contrast, localized Compound 1 delivery was characterized by minimal peak systemic concentrations of approximately 0.04 μM but sustained exposure ≥0.45 μM in the colon tissue, as shown in FIG. 11D. Therefore, strategic targeting or release of JAK1 inhibitors within the inflamed gastrointestinal tissue can potentially achieve improved benefit-risk profiles.

[5] = tested on: oxazolone-induced colitis in BALB/c mice; assay: Mouse oxazolone-induced colitis model; type: in vivo
[6] = localized intracolonic delivery (3 mg/kg)

Chain of human JAK1 (a.a. 837-1142) (P23458 837-1142): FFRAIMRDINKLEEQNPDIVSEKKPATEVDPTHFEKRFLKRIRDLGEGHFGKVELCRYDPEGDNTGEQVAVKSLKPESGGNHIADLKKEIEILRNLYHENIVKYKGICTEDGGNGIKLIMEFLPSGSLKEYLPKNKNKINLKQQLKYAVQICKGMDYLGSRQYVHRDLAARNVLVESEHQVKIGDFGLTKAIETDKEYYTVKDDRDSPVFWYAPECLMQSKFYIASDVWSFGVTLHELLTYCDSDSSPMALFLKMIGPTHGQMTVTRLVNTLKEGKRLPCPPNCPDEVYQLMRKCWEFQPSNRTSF

N#CCC1(n2cc(-c3ncnc4[nH]ccc34)cn2)CN(C2CCN(C(=O)c3ccnc(C(F)(F)F)c3F)CC2)C1 [Compound 1, {1-{1-[3-Fluoro-2-(trifluoromethyl)isonicotinoyl]piperidin-4-yl}-3-[4-(7H-pyrrolo[2,3-d]pyrimidin-4-yl)-1H-pyrazol-1-yl]azetidin-3-yl}acetonitrile]
pIC50 [1]: > 8.00 | mean change from baseline sPGA at Day 28, dose relation ([2]; 100 mg QD, 200 mg QD, 200 mg BID, 600 mg QD): dose-dependent response | Day 28 sPGA score, Mean (SD) ([2]; 100 mg QD, n=9): 2.6 (1.01) | Day 28 sPGA score, Median ([2]; 100 mg QD, n=9): 2.0 | Percent change from baseline in sPGA score at Day 28, Median ([2]; 100 mg QD, n=9): −33.3% | Percent change from baseline in sPGA score at Day 28, Mean (SD) ([2]; 100 mg QD, n=9, p=0.270 vs placebo): −22.2 (23.57) Percent | change from baseline in sPGA, clinical meaning ([2]; 200 mg BID (p=0.053) and 600 mg QD (p=0.003)): clinically meaningful changes from baseline | Day 28 sPGA score, Mean (SD) ([2]; 200 mg BID, n=9): 2.0 (1.00) | Day 28 sPGA score, Median ([2]; 200 mg BID, n=9): 2.0 | Percent change from baseline in sPGA score at Day 28, Median ([2]; 200 mg BID, n=9): −33.3% | Percent change from baseline in sPGA score at Day 28, Mean (SD) ([2]; 200 mg BID, n=9, p=0.053 vs placebo): −35.2 (33.79) Percent | Day 28 sPGA score, Mean (SD) ([2]; 200 mg QD, n=9): 2.3 (1.00) | Day 28 sPGA score, Median ([2]; 200 mg QD, n=9): 2.0 | Percent change from baseline in sPGA score at Day 28, Median ([2]; 200 mg QD, n=9): −33.3% | Percent change from baseline in sPGA score at Day 28, Mean (SD) ([2]; 200 mg QD, n=9, p=0.118 vs placebo): −29.4 (31.14) Percent | Day 28 sPGA score, Mean (SD) ([2]; 600 mg QD, n=11): 1.8 (0.98) | Day 28 sPGA score, Median ([2]; 600 mg QD, n=11): 2.0 | Percent change from baseline in sPGA score at Day 28, Median ([2]; 600 mg QD, n=11): −33.3% | Percent change from baseline in sPGA score at Day 28, Mean (SD) ([2]; 600 mg QD, n=11, p=0.003 vs placebo): −42.4 (26.21) Percent | neutropenia ([2]; psoriasis patients): No neutropenia was noted | inhibition of IL-6 induced pSTAT3 ([3]; RA patients, Cycle 1 Day 15): general trend of dose-dependent inhibition of IL-6 induced pSTAT3 | inhibition of pSTAT3 in response to IL-6 stimulation ex vivo ([3]; psoriasis patients): concentration dependent inhibition of pSTAT3 | systemic drug exposure relative to JAK1 IC50 ([4]; intracolonic doses): below JAK1 IC50 | peak systemic concentrations [4, 6]: approximately 0.04 μM | sustained exposure in the colon tissue [4, 6]: ≥ 0.45 µM | peak circulating drug level ([4]; oral dosing (30 mg/kg)): approximately 11 μM | colon shortening ([5]; 3 mg/kg IC BID): significantly ameliorated colon shortening; also recorded: significantly (p<0.05) reduced colon shortening | macroscopic tissue pathology ([5]; 30 mg/kg BID oral): ameliorating macroscopic tissue pathology | normalized colon weight (inflammatory swelling) ([5]; 30 mg/kg BID oral): reducing normalized colon weight | recovery from diarrhea and rectal bleeding (symptoms) ([5]; 30 mg/kg BID oral): reduces symptoms; also recorded: efficacious in accelerating recovery from diarrhea and rectal bleeding | colon shortening ([5]; 30 mg/kg PO BID): significantly ameliorated colon shortening; also recorded: significant (p<0.05) reduction in colon shortening | stool consistency and fecal occult blood scoring ([5]; twice daily, orally or intracolonically, vs vehicle): significantly ameliorated stool consistency and reduced fecal occult blood scoring
